Legend:
[1] = refractive index (Na D-line) (dimensionless); xn = mol fraction of the nth substance listed; details: 101 kPa, Liquid, Standard Abbe refractometry
[2] = xn = mol fraction of the nth substance listed; details: 101 kPa, Liquid, Vibrating tube method

C1CCC(NC2CCCCC2)CC1 [N-cyclohexylcyclohexanamine] + CC(C)(C)O
Details	mass density, 303.15 K [kg/m3]	mass density, 308.15 K [kg/m3]	mass density, 313.15 K [kg/m3]	mass density, 318.15 K [kg/m3]	mass density, 323.15 K [kg/m3]	refractive index, 303.15 K	refractive index, 308.15 K	refractive index, 313.15 K	refractive index, 318.15 K	refractive index, 323.15 K
[1], x2 = 0	–	–	–	–	–	1.47978	1.47761	1.47562	1.47347	1.47134
[1], x2 = 0.1	–	–	–	–	–	1.47584	1.47362	1.47142	1.46916	1.467
[1], x2 = 0.199	–	–	–	–	–	1.47107	1.46875	1.46639	1.4641	1.46188
[1], x2 = 0.289	–	–	–	–	–	1.46609	1.46373	1.46133	1.45899	1.45674
[1], x2 = 0.4	–	–	–	–	–	1.45896	1.4565	1.45403	1.45163	1.44932
[1], x2 = 0.485	–	–	–	–	–	1.45238	1.44994	1.44742	1.44498	1.44272
[1], x2 = 0.6	–	–	–	–	–	1.4423	1.43973	1.43717	1.43461	1.43215
[1], x2 = 0.698	–	–	–	–	–	1.43185	1.42927	1.42663	1.42401	1.42155
[1], x2 = 0.801	–	–	–	–	–	1.41877	1.41609	1.41336	1.41073	1.4081
[1], x2 = 0.849	–	–	–	–	–	1.41128	1.40862	1.40587	1.40316	1.40048
[1], x2 = 0.9	–	–	–	–	–	1.40275	1.40004	1.39727	1.39449	1.39193
[2], x2 = 0	904.144	900.372	896.608	892.847	889.089	–	–	–	–	–
[2], x2 = 0.1	899.362	895.452	891.533	887.611	883.684	–	–	–	–	–
[2], x2 = 0.199	893.462	889.433	885.384	881.326	877.25	–	–	–	–	–
[2], x2 = 0.289	887.197	883.071	878.917	874.742	870.544	–	–	–	–	–
[2], x2 = 0.4	878.023	873.772	869.49	865.171	860.821	–	–	–	–	–
[2], x2 = 0.485	869.715	865.366	860.973	856.539	852.063	–	–	–	–	–
[2], x2 = 0.6	856.549	852.061	847.522	842.928	838.281	–	–	–	–	–
[2], x2 = 0.698	843.066	838.44	833.751	829.003	824.196	–	–	–	–	–
[2], x2 = 0.801	825.644	820.845	815.974	811.036	806.029	–	–	–	–	–
[2], x2 = 0.849	815.948	811.061	806.1	801.065	795.955	–	–	–	–	–
[2], x2 = 0.9	804.266	799.276	794.206	789.061	783.837	–	–	–	–	–

Source: the NIST ThermoML archive (doi:10.1016/j.tca.2011.08.002)
